{"source": "paper PMC7180134", "about": "(Angewandte Chemie (International ed. in English), 2020)", "target": "T1, human NTH1 (hNTH1, endonuclease III-like protein 1) (Homo sapiens, UniProt P78549)", "T1 sequence (P78549 23-304)": "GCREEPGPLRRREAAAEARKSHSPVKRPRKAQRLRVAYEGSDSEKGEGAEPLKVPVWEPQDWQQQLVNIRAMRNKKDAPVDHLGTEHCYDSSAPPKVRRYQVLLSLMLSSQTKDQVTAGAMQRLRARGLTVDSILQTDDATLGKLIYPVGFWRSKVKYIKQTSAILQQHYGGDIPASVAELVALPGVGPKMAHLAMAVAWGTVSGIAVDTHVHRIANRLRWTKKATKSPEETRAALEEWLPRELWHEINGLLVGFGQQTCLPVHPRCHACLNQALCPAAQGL", "assay_type": "biochemical"}
{"smiles": "Nc1ncnc2c1c(-c1cccc(OCc3ccccc3)c1)cn2[C@H]1C[C@@H](CN2CCC2)C1", "note": "[NVP-AEW541]", "values": [{"measurement": "IC50", "result": 780, "unit": "nM"}]}
